Reference: patent US12324927B2, “Methods and systems for photodynamic therapy calculations” (THE TRUSTEES OF THE UNIVERSITY OF PENNSYLVANIA, priority 2018, dated 2025)
“And” between values parts separate entries of the source, which are not always exact repeats. Equal values may be shown once.

Columns and labels:
[1] = Photofrin concentration and PDT dose at pleural cavity sites measured by fluorescence with 4-channel PDT dose dosimeter during Photofrin-mediated pleural PDT; assay type: in vivo, human; conditions: for Mean Photofrin concentration: local tissue concentration per patient and pleural site, Photofrin 2 mg kg^−1 i.v. 24 h before PDT, mean ± SD of smoothed values
Protocol: The patients in this study were enrolled in a Phase II randomized clinical trial of Photofrin-mediated PDT for pleural mesothelioma treatment. Having given informed consent, they were administered Photofrin (Pinnacle Biologics, Chicago, IL, USA) at 2 mg kg^−1 of body weight as an intravenous infusion 24 h prior to intra-operative PDT. PDT was performed in the operating room, immediately following radical pleurectomy and debulking of tumor. PDT treatment was performed with 632 nm light provided by a KTP-pumped dye laser (model 630 XP, Laserscope, Inc., San Jose, CA, USA) to a total fluence of 60 J cm^−2. Light was delivered to the pleural cavity via an optical fiber inserted into modified endotracheal tube filled with 0.1% intralipid to produce an extended isotropic light source. The pleural cavity was filled with 0.01% intralipid solution during PDT treatment. As the intralipid solution became contaminated with blood as observed by the treating physician, it was repeatedly removed by suction pump and replaced with fresh solution to minimize light absorption by hemoglobin. The light source was circulated around in the lung cavity by the physician during the PDT. The instantaneous light fluence rate and the cumulative light dose were monitored continuously using 8 isotropic detectors (Medlight, Switzerland) sutured to 8 strategic locations within the pleural cavity wall. […] Each spectrometer has wavelength range of 200 nm-1050 nm and resolution of 0.42 nm using a diode array of 2048×1 elements and 14 μm×200 μm per element. The spectral resolution achieved was 0.47 nm. Isotropic detectors 9 to 12 were connected to the multichannel dosimetry system only. The dosimetry system records light fluence rate using photodiodes. Light fluence rate at surface is measured directly with an isotropic detector placed on the surface. The measured light fluence rate is not reflective of intra-tissue light fluence rate, which may be higher or lower than the value on the tissue surface depending on the tissue optical properties. Fluorescence collected by the fibers was collimated and passed through long pass filters (Semrock, Inc., Rochester, NY, USA) to block the treatment light before the transmitted fluorescence was recorded by the spectrometers, whereas no filtration was required for the treatment-light signal in the other arm of the bifurcated fibers. The front view and the schematic diagram of the system setup are shown in FIGS. 1A-B. There are 16 channels on the system enclosure as shown in FIG. 1A. Channels 9 to 16 (top row) are connected to the dosimetry system only whereas Channels 1 to 4 (bottom row) are connected to both the dosimetry system and the spectrometers. Channels 5 to 8 (bottom row) are currently not used. In this study, Channels 1 to 4 are used to measure fluence rate of the treatment light and Photofrin fluorescence concurrently, while Channel 9 to 12 are used to measure light fluence rate only.
Diffuse reflectance measurements were acquired before and after PDT treatment using a specially designed fiber optic-based contact probe comprising (e.g., or consisting of) one source fiber, coupled to an air-cooled quartz-tungsten-halogen (QTH) lamp (Avalight HAL-S, Avantes, Inc., Louisville, CO, USA), and 9 detection fibers spaced at distances from 1.4 to 8.7 mm from the source. Measurements were made with the probe in contact with the interior surface of the pleural cavity. The reflected light was collected by the detection fibers which are imaged via a spectrograph onto a CCD, to measure radially-resolved diffuse reflectance. Background signal was measured in the same tissue with the white light source turned off, and then subtracted from each measurement. Each tissue spectrum is divided by the spectrum obtained with the same light source and detector in an integrating sphere to account for the wavelength-dependence of the white light source power and CCD response. […]

[2] = 10 min mock treatment in liquid tissue-simulating phantom with moving light source; assay type: physicochemical; conditions: 3 mg kg^−1 Photofrin, 0-70 mW cm^−2
Protocol: Excitation light intensity varies vastly during PDT as the light source was constantly circulated around in the lung cavity by the physician. To test the performance of the PDT dosimetry system in measuring Photofrin fluorescence with varying excitation light intensities, a 10 min mock treatment was performed using liquid tissue-simulating phantom (μa=0.3 cm^−1 and μ′s=9.6 cm^−1) with known Photofrin concentration of 3 mg kg^−1 and a moving light source. The fluorescence spectra were measured at the surface of the phantom using isotropic detectors as described above. The treatment started with the treatment light wand positioned at a fixed distance above the phantom for 1 min. The average fluence rate measured on the surface was 50 mW cm^−2. Then the light wand was moved randomly over the top of the phantom to simulate the variations in the light fluence rate due to the movement of treatment light source in the pleural cavity during PDT treatment. […] The Photofrin concentrations obtained from measured Photofrin fluorescence spectra using data analysis method described above are plotted as a function of treatment time as shown in FIG. 4B. Each data point represents Photofrin concentration obtained from one fluorescence spectrum and the solid lines represent the average Photofrin concentration calculated for every 1 min of data. […]

[3] = 22 sites, 8 patients, 2 mg kg^−1

For Photofrin, the “mean of the local Photofrin concentrations measured from all sites” value [1, 3] was 3.94±2.01 mg kg 1, the “median of the local Photofrin concentrations measured from all sites” value [1, 3] was 3.37 ± 2.01 mg/kg and the “Mean Photofrin concentration” value ([1]; pleural site ACW) was 2.80 ± 0.27 mg/kg and 9.38 ± 0.57 mg/kg. The “Mean Photofrin concentration” value ([1]; pleural site AS) was 3.22 ± 0.35 mg/kg, the “Mean Photofrin concentration” value ([1]; pleural site Apex) was 4.71 ± 0.15 mg/kg and 3.12 ± 0.35 mg/kg and 1.13 ± 0.02 mg/kg and 3.27 ± 0.71 mg/kg and 7.19 ± 0.92 mg/kg and 4.56 ± 0.45 mg/kg and the “Mean Photofrin concentration” value ([1]; pleural site PCW) was 3.47 ± 0.42 mg/kg and 1.47 ± 0.20 mg/kg and 1.58 ± 0.21 mg/kg and 5.23 ± 0.47 mg/kg and 2.32 ± 0.23 mg/kg. For the same substance, the “Mean Photofrin concentration” value ([1]; pleural site PM) was 5.65 ± 0.67 mg/kg and 3.62 ± 0.61 mg/kg and 6.81 ± 0.35 mg/kg, the “Mean Photofrin concentration” value ([1]; pleural site PS) was 2.94 ± 0.12 mg/kg and 3.01 ± 0.05 mg/kg and 5.73 ± 0.24 mg/kg and 3.54 ± 0.16 mg/kg and the “Mean Photofrin concentration” value ([1]; pleural site Peri) was 1.87 ± 0.31 mg/kg. For the same substance, the “difference of local sensitizer concentrations within the same patient” value ([1]; patient #020, same administered dose 2 mg kg^−1) was 2.9 times, the “difference of local sensitizer concentrations between patients” value ([1]; patients #016 and #018, same administered dose 2 mg kg^−1) was 8.3 times and the “photobleaching of Photofrin during mock treatment” value [2] was “negligible photobleaching”.
